Results on 29 molecules are retold here after ChEMBL document CHEMBL6083256, “Design, synthesis and biological evaluation of novel oxazole derivatives as potential hypoglycemic agents” (Bioorg Med Chem, 2024).

Molecules are shown by their SMILES.

Series [1] relates to HepG2. The series is described as follows: Induction of glucose consumption in starved human HepG2 cells assessed as fold increase in activity at 20 uM incubated for 24 hrs relative to control. In kind it is functional.
In another series the test system is Mus musculus. The series is described as follows: Hypoglycemic activity in overnight-fasted C57BL/6J mouse assessed as reduction in blood glucose level at 80 mg/kg, ip pretreated for 30 mins followed by glucose administration measured upto 120 mins by OGTT analysis. In kind it is functional, organism-based. The settings on record: time 150.0 min.
For series [2], the system named is 3T3-L1. The series is described as follows: Cytotoxicity against mouse 3T3-L1 cells at 100 uM incubated for 72 hrs by CCK8 assay. The settings on record: 3t3-l1, 72 h. In kind it is toxicity, cell-based.
The test system of series [3] is 3T3-L1. The series is described as follows: Induction of glucose consumption in starved mouse 3T3-L1 cells incubated for 24 hrs. The format is functional, cell-based. The settings on record: dose 1-25 µM.
Series [4] has as its system HepG2. The series is described as follows: Induction of glucose consumption in starved human HepG2 cells incubated for 24 hrs. The format is functional, cell-based. Particulars: dose 1-25 µM; call rule not given here.
For series [5], the system named is HepG2. The series is described as follows: Cytotoxicity against human HepG2 cells at 100 uM incubated for 72 hrs by CCK8 assay. The settings on record: hepg2, 72 h. In kind it is toxicity, cell-based.
For series [6], the system named is HepG2. The series is described as follows: Induction of glucose consumption in starved human HepG2 cells assessed as fold increase in activity at 2 mM incubated for 24 hrs relative to control. The format is functional.
Series [7] is described as follows: Cytotoxicity against mouse 3T3-L1 cells incubated for 72 hrs by CCK8 assay. In kind it is toxicity, cell-based.
Series [8] concerns HepG2. The series is described as follows: Cytotoxicity against human HepG2 cells assessed as change in cell morphology at 3.125 to 100 uM incubated for 72 hrs. In kind it is toxicity, cell-based. The settings on record: hepg2, 72 h, dose 3.125-100 µM.
Series [9] has as its system HepG2. The series is described as follows: Cytotoxicity against human HepG2 cells at 25 uM incubated for 72 hrs by CCK8 assay. In kind it is toxicity, cell-based. The settings on record: hepg2, 72 h.
The test system of series [10] is 3T3-L1. The series is described as follows: Cytotoxicity against mouse 3T3-L1 cells assessed as change in cell morphology at 3.125 to 100 uM incubated for 72 hrs. The settings on record: 3t3-l1, 72 h, dose 3.125-100 µM. The format is toxicity, cell-based.
The test system of series [11] is 3T3-L1. The series is described as follows: Cytotoxicity against mouse 3T3-L1 cells at 25 uM incubated for 72 hrs by CCK8 assay. In kind it is toxicity, cell-based. The settings on record: 3t3-l1, 72 h.
Series [12] is described as follows: Cytotoxicity against human HepG2 cells incubated for 72 hrs by CCK8 assay. The format is toxicity, cell-based.
Series [13] addresses AMP-activated protein kinase, AMPK (Homo sapiens) (UniProt P54646+O43741+P54619+Q9UGJ0+Q9Y478+Q13131+Q9UGI9). The series is described as follows: Induction of AMPK phosphorylation at Thr172 in human HepG2 cells incubated for 24 hrs by Western blot analysis. The format is cell-based. Particulars: filed as activator.
A further series concerns the target CYP2C9 (Homo sapiens, UniProt P11712). The series is described as follows: Inhibition of CYP2C9 in human liver microsomes at 10 uM relative to control. The format is ADME, Microsome.
The target of another series is CYP3A4 (Homo sapiens, UniProt P08684). The series is described as follows: Inhibition of CYP3A4 in human liver microsomes at 10 uM relative to control. The format is ADME, Microsome.
The target in another series is CYP2C19 (Homo sapiens, UniProt P33261). The series is described as follows: Inhibition of CYP2C19 in human liver microsomes at 10 uM relative to control. The format is ADME, Microsome.
A further series has as its target CYP2D6 (Homo sapiens, UniProt P10635). The series is described as follows: Inhibition of CYP2D6 in human liver microsomes at 10 uM relative to control. In kind it is ADME, Microsome.
For another series, the target named is T1, CYP1A2 (Homo sapiens, UniProt P05177).
T1 sequence (P05177 whole entry): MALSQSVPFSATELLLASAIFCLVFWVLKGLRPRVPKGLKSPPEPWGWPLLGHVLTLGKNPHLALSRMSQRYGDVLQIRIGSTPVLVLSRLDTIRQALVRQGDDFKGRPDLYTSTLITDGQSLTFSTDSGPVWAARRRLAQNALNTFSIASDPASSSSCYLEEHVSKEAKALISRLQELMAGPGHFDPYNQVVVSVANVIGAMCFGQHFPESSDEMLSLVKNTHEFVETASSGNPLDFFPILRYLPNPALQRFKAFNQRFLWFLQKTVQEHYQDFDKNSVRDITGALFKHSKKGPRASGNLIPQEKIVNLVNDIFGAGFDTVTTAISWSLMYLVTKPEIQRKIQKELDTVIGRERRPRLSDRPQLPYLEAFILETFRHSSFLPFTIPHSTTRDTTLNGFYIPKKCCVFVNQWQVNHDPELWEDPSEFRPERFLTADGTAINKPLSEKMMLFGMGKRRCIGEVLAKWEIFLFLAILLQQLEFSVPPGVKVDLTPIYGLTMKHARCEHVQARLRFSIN
The series is described as follows: Inhibition of CYP1A2 in human liver microsomes at 10 uM relative to control. The format is ADME, Microsome.

Chain of CYP2C9 (P11712 whole entry): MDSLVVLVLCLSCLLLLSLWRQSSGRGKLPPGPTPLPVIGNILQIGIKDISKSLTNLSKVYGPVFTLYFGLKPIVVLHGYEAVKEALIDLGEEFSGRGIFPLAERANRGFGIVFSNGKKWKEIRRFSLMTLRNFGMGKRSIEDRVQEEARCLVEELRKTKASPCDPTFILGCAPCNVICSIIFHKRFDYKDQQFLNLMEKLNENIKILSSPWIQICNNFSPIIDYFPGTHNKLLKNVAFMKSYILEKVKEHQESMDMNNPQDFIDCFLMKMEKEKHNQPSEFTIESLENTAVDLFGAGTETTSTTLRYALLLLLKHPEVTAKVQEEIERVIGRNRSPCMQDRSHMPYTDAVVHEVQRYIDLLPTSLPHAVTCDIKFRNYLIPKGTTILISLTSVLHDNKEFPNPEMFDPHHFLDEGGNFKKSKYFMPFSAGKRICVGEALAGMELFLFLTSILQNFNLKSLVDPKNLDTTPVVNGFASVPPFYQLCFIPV
Chain of CYP2C19 (P33261 whole entry): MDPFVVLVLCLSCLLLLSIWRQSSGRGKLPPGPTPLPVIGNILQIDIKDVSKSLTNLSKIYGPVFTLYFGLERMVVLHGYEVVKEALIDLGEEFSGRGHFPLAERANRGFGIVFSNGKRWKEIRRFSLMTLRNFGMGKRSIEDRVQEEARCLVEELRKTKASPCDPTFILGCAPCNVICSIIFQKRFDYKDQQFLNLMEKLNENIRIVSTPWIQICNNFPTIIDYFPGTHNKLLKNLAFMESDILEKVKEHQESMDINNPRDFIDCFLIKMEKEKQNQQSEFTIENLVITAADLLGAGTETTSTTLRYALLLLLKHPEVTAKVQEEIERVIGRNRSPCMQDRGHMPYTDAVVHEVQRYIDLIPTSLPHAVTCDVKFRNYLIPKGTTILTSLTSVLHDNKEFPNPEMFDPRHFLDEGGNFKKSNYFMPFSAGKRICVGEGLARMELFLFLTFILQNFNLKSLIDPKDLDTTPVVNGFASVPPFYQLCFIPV
Chain of CYP3A4 (P08684 whole entry): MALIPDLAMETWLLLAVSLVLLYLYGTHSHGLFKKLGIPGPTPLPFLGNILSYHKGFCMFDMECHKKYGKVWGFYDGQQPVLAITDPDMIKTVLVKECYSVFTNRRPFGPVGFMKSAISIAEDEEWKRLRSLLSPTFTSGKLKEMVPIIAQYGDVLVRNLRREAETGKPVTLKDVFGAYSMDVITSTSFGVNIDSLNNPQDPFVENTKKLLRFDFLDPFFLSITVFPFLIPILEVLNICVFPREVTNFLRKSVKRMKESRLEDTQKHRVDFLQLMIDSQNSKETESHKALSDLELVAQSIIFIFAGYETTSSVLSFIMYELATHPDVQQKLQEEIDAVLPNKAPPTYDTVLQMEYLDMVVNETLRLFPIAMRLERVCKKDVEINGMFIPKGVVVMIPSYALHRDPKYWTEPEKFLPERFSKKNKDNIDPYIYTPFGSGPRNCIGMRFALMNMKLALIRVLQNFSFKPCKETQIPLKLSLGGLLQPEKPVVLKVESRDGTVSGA
Chain of CYP2D6 (P10635 whole entry): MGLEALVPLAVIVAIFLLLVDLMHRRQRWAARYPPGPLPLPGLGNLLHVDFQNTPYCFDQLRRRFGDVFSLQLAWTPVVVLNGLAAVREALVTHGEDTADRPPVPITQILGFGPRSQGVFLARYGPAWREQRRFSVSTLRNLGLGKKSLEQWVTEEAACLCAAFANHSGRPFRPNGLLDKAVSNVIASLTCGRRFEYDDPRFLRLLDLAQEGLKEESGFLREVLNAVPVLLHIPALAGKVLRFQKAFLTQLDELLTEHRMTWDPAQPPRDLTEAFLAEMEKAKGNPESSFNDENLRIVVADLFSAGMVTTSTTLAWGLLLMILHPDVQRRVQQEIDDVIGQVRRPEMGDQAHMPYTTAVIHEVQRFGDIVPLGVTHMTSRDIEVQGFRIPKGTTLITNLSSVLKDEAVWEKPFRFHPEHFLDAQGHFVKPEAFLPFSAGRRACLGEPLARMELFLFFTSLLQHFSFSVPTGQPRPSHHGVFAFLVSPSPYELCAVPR

On to `Cc1ccc(-c2nc(CN3CCC(CO)CC3)co2)cc1`, for which the “fold change (FC)” value in the series with HepG2 [1] worked out at 1.39.

For the molecule `OCC1CCN(Cc2coc(-c3ccc(C(F)(F)F)cc3)n2)CC1`, the “fold change (FC)” value with HepG2 [1] is given as 1.43.

For `NC1CCN(Cc2coc(-c3ccc(C(F)(F)F)cc3)n2)CC1`, the “fold change (FC)” value in the series with HepG2 [1] worked out at 1.6. For the same molecule, the Activity result was “Not active; Exhibited Minimal Activity” in the series with Mus musculus; “Toxic” in the series on 3T3-L1 [2]; “Dose-dependent-effect” in the series with 3T3-L1 [3]; “Dose-dependent-effect” in the series with HepG2 [4]; “Toxic” with HepG2 [5].

On to `OCC1CCN(Cc2coc(-c3ccc(Cl)cc3)n2)CC1`, for which the “fold change (FC)” value with HepG2 [1] is given as 1.24.

Consider `COC1CCCN(Cc2coc(-c3ccc(C(F)(F)F)cc3)n2)C1` (configuration not stated), for which the “fold change (FC)” value with HepG2 [1] was determined as 1.05.

For the molecule `OCC1CCCN(Cc2coc(-c3ccc(C(F)(F)F)cc3)n2)C1` (configuration not stated), the “fold change (FC)” value in the series on HepG2 [1] is on record as 1.42.

Take `CC(C)(C)OC(=O)N1CCN(Cc2coc(-c3ccc(C(F)(F)F)cc3)n2)CC1`: the “fold change (FC)” value with HepG2 [1] came out at 1.46.

Consider `CN(C)C(=N)NC(=N)N` [METFORMIN], for which the “fold change (FC)” value with HepG2 [6] is 1.57.

Consider `COC1CCN(Cc2coc(-c3ccc(C(F)(F)F)cc3)n2)CC1`, for which the “fold change (FC)” value with HepG2 [1] is recorded as 1.61. The IC50 at 72 h in series [7] and in series [12] was greater than 100 µM in each case. In addition, the Activity entry is “Non-toxic” in the series on HepG2 [8]; “Not active; Exhibited Weak Activity” with Mus musculus; “Non-toxic” in the series with HepG2 [9]; “Dose-dependent-effect” in the series with 3T3-L1 [3]; “Non-toxic” in the series on 3T3-L1 [10]; “Non-toxic” in the series on 3T3-L1 [11]. For the same molecule, in the series on HepG2 [4], the Activity result is “Dose-dependent-effect”.

As for `COC(=O)C1CCN(Cc2coc(-c3ccc(C(F)(F)F)cc3)n2)CC1`, the “fold change (FC)” value with HepG2 [1] came out at 1.6. Moreover, the IC50 at 72 h in series [7] and in series [12] was greater than 100 µM in each case. Besides, the Activity entry was “Non-toxic” in the series with HepG2 [8]; “Dose-dependent-effect” in series [13]; “Active; Exhibited Strongest Activity Than Other Tested Compounds” in the series on Mus musculus; “Non-toxic” in the series with HepG2 [9]; “Dose-dependent-effect” in the series with 3T3-L1 [3]; “Non-toxic” with 3T3-L1 [10]. Moreover, the Activity result in the series with 3T3-L1 [11] was “Non-toxic”; in the series on HepG2 [4], “Dose-dependent-effect”. Besides, the inhibition at 10 µM against CYP2C9 worked out at 5.8%; on CYP3A4 it was 2.1%; on CYP2C19, 21.7%; against CYP2D6, 4.6%; on CYP1A2 it was 16.2%.

For the molecule `Cc1cccc(-c2nc(CN3CCC(CO)CC3)co2)c1`, the “fold change (FC)” value in the series on HepG2 [1] amounted to 1.25.

For the molecule `CS(=O)(=O)C1CCN(Cc2coc(-c3ccc(C(F)(F)F)cc3)n2)CC1`, the “fold change (FC)” value with HepG2 [1] stood at 1.39.

For `COCC1CCN(Cc2coc(-c3ccc(C(F)(F)F)cc3)n2)CC1`, the “fold change (FC)” value with HepG2 [1] was found to be 1.2.

For `OC1CCN(Cc2coc(-c3ccc(C(F)(F)F)cc3)n2)CC1`, the “fold change (FC)” value with HepG2 [1] stood at 1.42.

For `CC(=O)N1CCN(Cc2coc(-c3ccc(C(F)(F)F)cc3)n2)CC1`, in the series with HepG2 [1], the “fold change (FC)” value turned out to be 1.21.

Regarding `OCC1CCN(Cc2coc(-c3ccc(F)cc3)n2)CC1`, in the series with HepG2 [1], the “fold change (FC)” value is on record as 1.27.

Consider `COc1cccc(-c2nc(CN3CCC(CO)CC3)co2)c1`, for which the “fold change (FC)” value in the series on HepG2 [1] is recorded as 1.27.

With `OC1CCCN(Cc2coc(-c3ccc(C(F)(F)F)cc3)n2)C1` (configuration not stated), the “fold change (FC)” value in the series on HepG2 [1] turned out to be 1.49.

`OCC1CCN(Cc2coc(-c3cccc(Cl)c3)n2)CC1`: the “fold change (FC)” value in the series with HepG2 [1] is 1.05.

Consider `OCC1CCN(Cc2coc(-c3cc(F)cc(F)c3)n2)CC1`, for which, in the series on HepG2 [1], the “fold change (FC)” value is recorded as 0.95.

Take `OCC1CCN(Cc2coc(-c3cccc(C(F)(F)F)c3)n2)CC1`: the “fold change (FC)” value in the series on HepG2 [1] came out at 1.4.

As for `CCOC(=O)C1CCN(Cc2coc(-c3ccc(C(F)(F)F)cc3)n2)CC1`, the “fold change (FC)” value with HepG2 [1] was 1.34.

As to `CS(=O)(=O)N1CCN(Cc2coc(-c3ccc(C(F)(F)F)cc3)n2)CC1`, the “fold change (FC)” value with HepG2 [1] was 1.63. In addition, the IC50 at 72 h in [7] and in series [12] was greater than 100 µM in each case. For the same molecule, the Activity result is “Non-toxic” in the series on HepG2 [8]; “Not active; Exhibited Minimal Activity” with Mus musculus; “Non-toxic” with HepG2 [9]; “Dose-dependent-effect” in the series with 3T3-L1 [3]; “Non-toxic” in the series with 3T3-L1 [10]; “Non-toxic” in the series on 3T3-L1 [11]. In addition, the Activity result in the series on HepG2 [4] is “Dose-dependent-effect”.

Consider `CCOC1CCN(Cc2coc(-c3ccc(C(F)(F)F)cc3)n2)CC1`, for which the “fold change (FC)” value in the series on HepG2 [1] is 1.42.

Turning to `COc1ccc(-c2nc(CN3CCC(CO)CC3)co2)cc1`, the “fold change (FC)” value in the series with HepG2 [1] came out at 1.05.

In the case of `FC(F)(F)c1ccc(-c2nc(CN3CCOCC3)co2)cc1`, the “fold change (FC)” value with HepG2 [1] is reported as 1.52.

As to `OCC1CCN(Cc2coc(-c3ccccc3)n2)CC1`, the “fold change (FC)” value in the series with HepG2 [1] worked out at 1.36.

On to `OCC1CCN(Cc2coc(-c3cccc(F)c3)n2)CC1`, for which the “fold change (FC)” value in the series with HepG2 [1] is 1.12.

Consider `CN1CCN(Cc2coc(-c3ccc(C(F)(F)F)cc3)n2)CC1`, for which, in the series with HepG2 [1], the “fold change (FC)” value is on record as 1.5.
